Patent US20080233561A1, “Method for Measuring Cytopathic Effect Due to Viral Infection in Cells Using Electric Cell-Substrate Impedance Sensing” (UNIVERSITY OF LOUISVILLE RESEARCH FOUNDATION, INC., priority 2005, published 2008)

Test system: PR8 influenza A virus (influenza/A/PR/8/34 virus)
Format: cell-based
Conditions: MDCK cells pretreated 1 hour with 20 mM NH4Cl and kept under NH4Cl; […]; approximately 48 hours PI; 4,000 Hz; listed as ammonium chloride (NH4Cl)

For `Cl.N` [NH4Cl, ammonium chloride], the “signal resistance (ECIS) of the cell monolayer following influenza inoculation” value was “the reduction in signal resistance due to influenza infection is abolished”.
